Holding throughout (format): functional
One assay deals with M14. As to the kind of experiment: Antiproliferative activity against human M14 cells assessed as inhibition of cell growth at 10 uM measured after 48 hrs by SRB assay relative to control. The conditions noted are these: M14, 48 h, read-out: GI. On the technique in general: In SRB staining, fixed cells bind dye roughly in proportion to their protein.
A further assay relates to OVCAR-8. As to the kind of experiment: Antiproliferative activity against human OVCAR8 cells assessed as inhibition of cell growth at 10 uM measured after 48 hrs by SRB assay relative to control. The following applies: OVCAR-8, 48 h, read-out: GI.
Another assay deals with COLO 205. As to the kind of experiment: Antiproliferative activity against human COLO205 cells assessed as inhibition of cell growth measured after 48 hrs by SRB assay. The conditions noted are these: COLO 205, 48 h.
For the next assay, the system named is HOP-92. Nature of the assay: Antiproliferative activity against human HOP92 cells assessed as inhibition of cell growth measured after 48 hrs by SRB assay. The conditions noted are these: HOP-92, 48 h.
Another assay relates to OVCAR-4. As to the kind of experiment: Antiproliferative activity against human OVCAR4 cells assessed as inhibition of cell growth measured after 48 hrs by SRB assay. The following applies: OVCAR-4, 48 h.
The next assay has as its system OVCAR-5. As to the kind of experiment: Antiproliferative activity against human OVCAR5 cells assessed as inhibition of cell growth measured after 48 hrs by SRB assay. The conditions noted are these: OVCAR-5, 48 h.
A further assay has as its system SNB-75. Nature of the assay: Antiproliferative activity against human SNB75 cells assessed as inhibition of cell growth measured after 48 hrs by SRB assay. The following applies: SNB-75, 48 h.
The test system of the next assay is NCI-H460. Nature of the assay: Antiproliferative activity against human NCI-H460 cells assessed as inhibition of cell growth measured after 48 hrs by SRB assay. The following applies: NCI-H460, 48 h.
The next assay relates to SF-268. Nature of the assay: Antiproliferative activity against human SF268 cells assessed as inhibition of cell growth measured after 48 hrs by SRB assay. The following applies: SF-268, 48 h.
Assay [1] concerns SF-539. Nature of the assay: Antiproliferative activity against human SF539 cells assessed as inhibition of cell growth at 10 uM measured after 48 hrs by SRB assay relative to control. The following applies: SF-539, 48 h, read-out: GI.
In another assay the test system is 786-0. Nature of the assay: Antiproliferative activity against human 786-0 cells assessed as inhibition of cell growth measured after 48 hrs by SRB assay. The following applies: 786-0, 48 h.
Assay [2] deals with IGROV-1. Nature of the assay: Antiproliferative activity against human IGROV1 cells assessed as inhibition of cell growth at 10 uM measured after 48 hrs by SRB assay relative to control. The following applies: IGROV-1, 48 h, read-out: GI.
The next assay deals with MDA-MB-231. Nature of the assay: Antiproliferative activity against human MDA-MB-231 cells assessed as inhibition of cell growth at 10 uM measured after 48 hrs by SRB assay relative to control. The conditions noted are these: MDA-MB-231, 48 h, read-out: GI.
For the next assay, the system named is TK-10. Nature of the assay: Antiproliferative activity against human TK10 cells assessed as inhibition of cell growth measured after 48 hrs by SRB assay. The conditions noted are these: TK-10, 48 h.
The subject of a further assay is SN12C. As to the kind of experiment: Antiproliferative activity against human SN12C cells assessed as inhibition of cell growth at 10 uM measured after 48 hrs by SRB assay relative to control. The following applies: read-out: GI.
The subject of another assay is SR. As to the kind of experiment: Antiproliferative activity against human SR cells assessed as inhibition of cell growth measured after 48 hrs by SRB assay.
A further assay relates to OVCAR-3. As to the kind of experiment: Antiproliferative activity against human OVCAR3 cells assessed as inhibition of cell growth measured after 48 hrs by SRB assay. The conditions noted are these: OVCAR-3, 48 h.
The next assay deals with UACC-62. Nature of the assay: Antiproliferative activity against human UACC62 cells assessed as inhibition of cell growth measured after 48 hrs by SRB assay. The following applies: UACC-62, 48 h.
The next assay concerns ACHN. Nature of the assay: Antiproliferative activity against human ACHN cells assessed as inhibition of cell growth measured after 48 hrs by SRB assay.
The subject of assay [3] is SF-539. As to the kind of experiment: Antiproliferative activity against human SF539 cells assessed as inhibition of cell growth measured after 48 hrs by SRB assay. The conditions noted are these: SF-539, 48 h.
A further assay deals with NCI-H226. Nature of the assay: Antiproliferative activity against human NCI-H226 cells assessed as inhibition of cell growth measured after 48 hrs by SRB assay. The following applies: NCI-H226, 48 h.
For another assay, the system named is HT-29. As to the kind of experiment: Antiproliferative activity against human HT-29 cells assessed as inhibition of cell growth measured after 48 hrs by SRB assay. The following applies: HT-29, 48 h.
The test system of another assay is K562. Nature of the assay: Antiproliferative activity against human K562 cells assessed as inhibition of cell growth at 10 uM measured after 48 hrs by SRB assay relative to control. The conditions noted are these: K562, 48 h, read-out: GI.
Another assay deals with CCRF-CEM. As to the kind of experiment: Antiproliferative activity against human CCRF-CEM cells assessed as inhibition of cell growth measured after 48 hrs by SRB assay.
A further assay has as its system Malme-3M. As to the kind of experiment: Antiproliferative activity against human MALME-3M cells assessed as inhibition of cell growth measured after 48 hrs by SRB assay.
Assay [4] has as its system IGROV-1. As to the kind of experiment: Antiproliferative activity against human IGROV1 cells assessed as inhibition of cell growth measured after 48 hrs by SRB assay. The conditions noted are these: IGROV-1, 48 h.
The test system of a further assay is A549. As to the kind of experiment: Antiproliferative activity against human A549 cells assessed as inhibition of cell growth at 10 uM measured after 48 hrs by SRB assay relative to control. The conditions noted are these: A549, 48 h, read-out: GI.

The term GI50 denotes the concentration that inhibits growth by half. With `O=C1CC(c2ccccc2)Cc2nc3c(Br)cc(Br)cc3cc21` (configuration not stated), the inhibition of growth at 10 µM was 94.7% in the assay on M14; 96% in the assay with OVCAR-8; 93.1% in the assay with SF-539 [1]; 84.8% in the assay on IGROV-1 [2]; 84.9% in the assay on MDA-MB-231; 60.5% in the assay with SN12C. Also, the inhibition of growth at 10 µM in the assay on K562 came out at 86.8%. Besides, the GI50 in the assay on COLO 205 was found to be 152 nM; in the assay on HOP-92 it was 66.8 nM; in the assay with OVCAR-4 it was 1410 nM; in the assay on OVCAR-5, 461 nM; in the assay with SNB-75, 199 nM; in the assay on NCI-H460, 42.3 nM. The concentration for 50% growth inhibition (GI50) in the assay on SF-268 amounted to 167 nM; in the assay with 786-0 it was 813 nM; in the assay on TK-10, 700 nM; in the assay with SR it was 91.3 nM; in the assay with OVCAR-3 it was 30.2 nM; in the assay with UACC-62 it was 338 nM. The 50% growth inhibitory concentration (GI50) with ACHN was found to be 595 nM; in the assay on SF-539 [3], 192 nM; with NCI-H226, 241 nM; in the assay on HT-29, 233 nM; in the assay with CCRF-CEM it was 88.9 nM; in the assay with Malme-3M, 119 nM. The concentration for 50% growth inhibition (GI50) with IGROV-1 [4] was 125 nM.
With `COc1ccc2nc3c(cc2c1)C(=O)CC(c1ccccc1)C3` (configuration not stated), the inhibition of growth at 10 µM in the assay with M14 worked out at 90.7%; with OVCAR-8, 61%; with SF-539 [1], 92.1%; with IGROV-1 [2], 64.2%; in the assay on MDA-MB-231, 45.4%; in the assay on SN12C, 59.3%. The figures for the inhibition of growth at 10 µM in the assay with A549 and with K562 were 65.2% and 86.8%, respectively. The GI50 with COLO 205 turned out to be 608 nM; with SNB-75, 572 nM; in the assay on NCI-H460, 1710 nM; in the assay on 786-0, 4370 nM; in the assay with SR it was 322 nM; in the assay with OVCAR-3 it was 1230 nM. Further, the GI50 with UACC-62 is 728 nM; with ACHN it was 756 nM; in the assay with SF-539 [3], 1150 nM; with HT-29, 428 nM; with CCRF-CEM, 322 nM; in the assay with IGROV-1 [4], 2310 nM.
Turning to `O=C1CC(c2ccccc2)Cc2nc3ccc(Br)cc3cc21` (configuration not stated), the inhibition of growth at 10 µM with M14 was determined as 89.8%; with OVCAR-8, 75.9%; in the assay on SF-539 [1] it was 98.4%; in the assay with IGROV-1 [2], 78%; with MDA-MB-231 it was 86.8%; with SN12C, 67.8%. For the same compound, the inhibition of growth at 10 µM stood at 76.2% in the assay on A549 and 93.9% in the assay with K562. Moreover, the GI50 with COLO 205 amounted to 261 nM; with OVCAR-5 it was 825 nM; in the assay with SNB-75, 210 nM; in the assay on NCI-H460, 344 nM; in the assay on SF-268 it was 3450 nM; in the assay with 786-0 it was 784 nM. In addition, the GI50 stood at 56.7 nM in the assay with SR; 289 nM with OVCAR-3; 444 nM with UACC-62; 583 nM in the assay on ACHN; 241 nM in the assay on SF-539 [3]; 2250 nM with NCI-H226. Besides, the GI50 with HT-29 was 205 nM; with CCRF-CEM it was 49.8 nM; in the assay with Malme-3M, 94.9 nM; in the assay with IGROV-1 [4], 423 nM.
Take `O=C1CC(c2ccccc2)Cc2nc3ccc(Cl)cc3cc21` (configuration not stated): the inhibition of growth at 10 µM in the assay with M14 is 91%; with OVCAR-8, 77.6%; in the assay with SF-539 [1] it was 112%; with IGROV-1 [2], 83.5%; in the assay on MDA-MB-231, 80.5%; in the assay on SN12C, 71.8%. In addition, the inhibition of growth at 10 µM in the assay on A549 came out at 76.7%; in the assay with K562 it was 79.3%. The GI50 in the assay on COLO 205 was found to be 346 nM; in the assay with OVCAR-5, 1020 nM; with SNB-75 it was 215 nM; in the assay on NCI-H460, 345 nM; in the assay with 786-0, 838 nM; in the assay on SR it was 53.2 nM. Also, the 50% growth inhibitory concentration (GI50) with OVCAR-3 turned out to be 302 nM; in the assay on UACC-62, 333 nM; with ACHN, 508 nM; with SF-539 [3], 219 nM; in the assay on NCI-H226, 1610 nM; with HT-29 it was 271 nM. The GI50 in the assay with CCRF-CEM is 40 nM; in the assay with IGROV-1 [4] it was 375 nM.
As to `COc1ccc2nc3c(cc2c1)C(=O)CC(C(F)(F)F)C3` (configuration not stated), the inhibition of growth at 10 µM was determined as 91.3% with M14; 60% in the assay with OVCAR-8; 77.4% in the assay with SF-539 [1]; 63.4% in the assay with IGROV-1 [2]; 40% in the assay with MDA-MB-231; 57.9% in the assay on SN12C. The inhibition of growth at 10 µM in the assay on A549 is 60.7%; in the assay with K562, 83.2%. Further, the GI50 in the assay on COLO 205 was 1160 nM; in the assay on SNB-75, 2160 nM; in the assay on NCI-H460, 2610 nM; in the assay on 786-0, 6570 nM; in the assay on SR, 217 nM; with OVCAR-3 it was 1830 nM. Also, the GI50 amounted to 697 nM in the assay on UACC-62; 768 nM in the assay with ACHN; 1890 nM in the assay on SF-539 [3]; 387 nM in the assay with HT-29; 238 nM with CCRF-CEM; 769 nM in the assay on IGROV-1 [4].

For the origin of these results see ChEMBL document CHEMBL4627344, “Synthesis, biological evaluation and virtual screening of some acridone derivatives as potential anticancer agents” (2020).
